Measurements as given in ChEMBL document CHEMBL4229455, “Synthesis and anticancer activity of novel bisindolylhydroxymaleimide derivatives with potent GSK-3 kinase inhibition” (Bioorg Med Chem, 2018).

Legend:
Aurora kinase B = Aurora kinase B (Homo sapiens, UniProt Q96GD4); experiment: Inhibition of recombinant full length human aurora B expressed in baculovirus infected Sf9 insect cells using MBP as substrate in presence of [gamma-33P]ATP
[1] = target: CDK9/cyclin T1 (Homo sapiens) (UniProt O60563+P50750); experiment: Inhibition of recombinant full length human CDK9/cyclin T expressed in baculovirus infected Sf9 insect cells assessed as residual activity at 10 uM using YSPTSPSYSPTSPSYSPTSPSKKKK as substrate in presence of [gamma-33P]ATP
HCT-116 = experiment: Cytotoxicity against human HCT116 cells assessed as cell growth at 10 uM after 48 hrs by SRB assay relative to control; format: functional; conditions: HCT-116, 48 h, read-out: Activity
NCI-H322M = experiment: Cytotoxicity against human NCI-H322M cells assessed as cell growth at 10 uM after 48 hrs by SRB assay relative to control; format: functional; conditions: read-out: Activity
SN12C = experiment: Cytotoxicity against human SN12C cells assessed as cell growth at 10 uM after 48 hrs by SRB assay relative to control; format: functional; conditions: read-out: Activity
HL-60(TB) = experiment: Cytotoxicity against human HL-60(TB) cells assessed as cell growth at 10 uM after 48 hrs by SRB assay relative to control; format: functional; conditions: HL-60, 48 h, read-out: Activity
MDA-MB-435 = experiment: Cytotoxicity against human MDA-MB-435 cells assessed as cell growth at 10 uM after 48 hrs by SRB assay relative to control; format: functional; conditions: MDA-MB-435, 48 h, read-out: Activity
A549 = experiment: Cytotoxicity against human A549 cells assessed as cell growth at 10 uM after 48 hrs by SRB assay relative to control; format: functional; conditions: A549, 48 h, read-out: Activity
M14 = experiment: Cytotoxicity against human M14 cells assessed as cell growth at 10 uM after 48 hrs by SRB assay relative to control; format: functional; conditions: M14, 48 h, read-out: Activity
NCI-H226 = experiment: Cytotoxicity against human NCI-H226 cells assessed as cell growth at 10 uM after 48 hrs by SRB assay relative to control; format: functional; conditions: NCI-H226, 48 h, read-out: Activity
[2] = target: Receptor-interacting serine/threonine-protein kinase 3 (Homo sapiens, UniProt Q9Y572); experiment: Inhibition of recombinant full length human RIPK3 expressed in baculovirus infected Sf9 insect cells assessed as residual activity at 10 uM using MBP as substrate in presence of [gamma-33P]ATP
Receptor-interacting serine/threonine-protein kinase 3, sequence (Q9Y572 whole entry, looked up): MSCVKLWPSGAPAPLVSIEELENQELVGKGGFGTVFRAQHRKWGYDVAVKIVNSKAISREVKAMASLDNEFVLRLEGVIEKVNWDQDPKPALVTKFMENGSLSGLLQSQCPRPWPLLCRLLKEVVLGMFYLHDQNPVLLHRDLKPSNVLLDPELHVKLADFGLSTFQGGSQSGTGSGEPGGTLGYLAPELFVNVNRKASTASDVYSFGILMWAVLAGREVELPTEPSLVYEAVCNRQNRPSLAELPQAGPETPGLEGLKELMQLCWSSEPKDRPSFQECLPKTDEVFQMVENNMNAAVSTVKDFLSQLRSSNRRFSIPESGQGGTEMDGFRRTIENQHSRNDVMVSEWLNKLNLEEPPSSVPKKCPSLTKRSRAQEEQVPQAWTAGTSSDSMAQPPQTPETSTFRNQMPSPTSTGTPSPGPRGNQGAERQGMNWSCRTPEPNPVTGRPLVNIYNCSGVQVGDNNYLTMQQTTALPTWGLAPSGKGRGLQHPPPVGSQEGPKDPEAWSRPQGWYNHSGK

TK-10 = experiment: Cytotoxicity against human TK10 cells assessed as cell growth at 10 uM after 48 hrs by SRB assay relative to control; format: functional; conditions: TK-10, 48 h, read-out: Activity
U-251 = experiment: Cytotoxicity against human U251 cells assessed as cell growth at 10 uM after 48 hrs by SRB assay relative to control; format: functional; conditions: U-251, 48 h, read-out: Activity
DU-145 = experiment: Cytotoxicity against human DU145 cells assessed as cell growth at 10 uM after 48 hrs by SRB assay relative to control; format: functional; conditions: DU-145, 48 h, read-out: Activity
A498 = experiment: Cytotoxicity against human A498 cells assessed as cell growth at 10 uM after 48 hrs by SRB assay relative to control; format: functional; conditions: A498, 48 h, read-out: Activity
CAKI-1 = experiment: Cytotoxicity against human Caki1 cells assessed as cell growth at 10 uM after 48 hrs by SRB assay relative to control; format: functional; conditions: CAKI-1, 48 h, read-out: Activity
RPMI-8226 = experiment: Cytotoxicity against human RPMI8226 cells assessed as cell growth at 10 uM after 48 hrs by SRB assay relative to control; format: functional; conditions: RPMI-8226, 48 h, read-out: Activity
OVCAR-5 = experiment: Cytotoxicity against human OVCAR5 cells assessed as cell growth at 10 uM after 48 hrs by SRB assay relative to control; format: functional; conditions: OVCAR-5, 48 h, read-out: Activity
HOP-62 = experiment: Cytotoxicity against human HOP62 cells assessed as cell growth at 10 uM after 48 hrs by SRB assay relative to control; format: functional; conditions: HOP-62, 48 h, read-out: Activity
SF-268 = experiment: Cytotoxicity against human SF268 cells assessed as cell growth at 10 uM after 48 hrs by SRB assay relative to control; format: functional; conditions: SF-268, 48 h, read-out: Activity
OVCAR-4 = experiment: Cytotoxicity against human OVCAR4 cells assessed as cell growth at 10 uM after 48 hrs by SRB assay relative to control; format: functional; conditions: OVCAR-4, 48 h, read-out: Activity
[3] = Inhibition of domestic porcine brain full length […] using RRKHAAIGSpAYSITA as substrate in presence of [gamma-33P]ATP; design: species or system Sus scrofa domesticus
[4] = target: Dual specificity tyrosine-phosphorylation-regulated kinase 1A (Rattus norvegicus, UniProt Q63470); experiment: Inhibition of recombinant rat DYRK1A kinase domain expressed in bacteria using KKISGRLSPIMTEQ as substrate in presence of [gamma-33P]ATP
NCI-H522 = experiment: Cytotoxicity against human NCI-H522 cells assessed as cell growth at 10 uM after 48 hrs by SRB assay relative to control; format: functional; conditions: NCI-H522, 48 h, read-out: Activity
K562 = experiment: Cytotoxicity against human K562 cells assessed as cell growth at 10 uM after 48 hrs by SRB assay relative to control; format: functional; conditions: K562, 48 h, read-out: Activity
[5] = target: Dual specificity tyrosine-phosphorylation-regulated kinase 1A (Rattus norvegicus) (UniProt Q63470); experiment: Inhibition of recombinant rat DYRK1A kinase domain expressed in bacteria assessed as residual activity at 10 uM using KKISGRLSPIMTEQ as substrate in presence of [gamma-33P]ATP
COLO 205 = experiment: Cytotoxicity against human COLO205 cells assessed as cell growth at 10 uM after 48 hrs by SRB assay relative to control; format: functional; conditions: COLO 205, 48 h, read-out: Activity
LOX IMVI = experiment: Cytotoxicity against human LOXIMVI cells assessed as cell growth at 10 uM after 48 hrs by SRB assay relative to control; format: functional; conditions: read-out: Activity
CCRF-CEM = experiment: Cytotoxicity against human CCRF-CEM cells assessed as cell growth at 10 uM after 48 hrs by SRB assay relative to control; format: functional; conditions: read-out: Activity
SR = experiment: Cytotoxicity against human SR cells assessed as cell growth at 10 uM after 48 hrs by SRB assay relative to control; format: functional; conditions: read-out: Activity
UACC-257 = experiment: Cytotoxicity against human UACC257 cells assessed as cell growth at 10 uM after 48 hrs by SRB assay relative to control; format: functional; conditions: UACC-257, 48 h, read-out: Activity

Aurora kinase B, sequence (Q96GD4 whole entry): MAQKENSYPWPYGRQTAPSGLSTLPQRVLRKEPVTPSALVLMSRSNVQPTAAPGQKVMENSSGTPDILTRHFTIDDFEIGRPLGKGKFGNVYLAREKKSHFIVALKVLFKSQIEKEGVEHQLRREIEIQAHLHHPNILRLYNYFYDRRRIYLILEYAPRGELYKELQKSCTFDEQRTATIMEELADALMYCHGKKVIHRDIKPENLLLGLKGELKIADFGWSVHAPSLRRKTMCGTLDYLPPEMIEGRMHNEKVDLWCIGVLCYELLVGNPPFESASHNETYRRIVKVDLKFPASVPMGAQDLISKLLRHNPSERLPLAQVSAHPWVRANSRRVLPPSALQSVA

## CC(C)n1cc(C2=C(c3cn(C)c4ccccc34)C(=O)N(O)C2=O)c2ccccc21
Aurora kinase B
  IC50: > 10 µM
[1]
  Activity: -7%
HCT-116
  growth at 10 µM: 85.4%
NCI-H322M
  growth at 10 µM: 91.7%
SN12C
  growth at 10 µM: 95.2%
HL-60(TB)
  growth at 10 µM: 98.7%
MDA-MB-435
  growth at 10 µM: 104%
A549
  growth at 10 µM: 97.1%
M14
  growth at 10 µM: 94.8%
NCI-H226
  growth at 10 µM: 77.2%
[2]
  Activity: 103%
TK-10
  growth at 10 µM: 127%
U-251
  growth at 10 µM: 98.8%
DU-145
  growth at 10 µM: 192%
A498
  growth at 10 µM: 99%
CAKI-1
  growth at 10 µM: 72.7%
RPMI-8226
  growth at 10 µM: 68.3%
OVCAR-5
  growth at 10 µM: 90.3%
HOP-62
  growth at 10 µM: 84.6%
SF-268
  growth at 10 µM: 97.3%
OVCAR-4
  growth at 10 µM: 99.6%
[3]
  IC50: > 10 µM
[4]
  IC50: > 10 µM
NCI-H522
  growth at 10 µM: 84.7%
K562
  growth at 10 µM: 77.7%
[5]
  Activity: 54%
COLO 205
  growth at 10 µM: 101%
LOX IMVI
  growth at 10 µM: 61.5%

## CC(C)n1cc(C2=C(c3c[nH]c4ccccc34)C(=O)N(O)C2=O)c2ccccc21
Aurora kinase B
  IC50: > 10 µM
[1]
  Activity: 44%
CCRF-CEM
  growth at 10 µM: 95.8%
HCT-116
  growth at 10 µM: 85.4%
NCI-H322M
  growth at 10 µM: 103%
SN12C
  growth at 10 µM: 101%
HL-60(TB)
  growth at 10 µM: 82.6%
MDA-MB-435
  growth at 10 µM: 102%
A549
  growth at 10 µM: 102%
M14
  growth at 10 µM: 98.9%
NCI-H226
  growth at 10 µM: 102%
[2]
  Activity: 97%
TK-10
  growth at 10 µM: 84.5%
U-251
  growth at 10 µM: 100%
DU-145
  growth at 10 µM: 107%
A498
  growth at 10 µM: 93.5%
CAKI-1
  growth at 10 µM: 78.3%
RPMI-8226
  growth at 10 µM: 56.9%
OVCAR-5
  growth at 10 µM: 105%
HOP-62
  growth at 10 µM: 98.6%
SF-268
  growth at 10 µM: 104%
OVCAR-4
  growth at 10 µM: 111%
[3]
  IC50: > 10 µM
[4]
  IC50: > 10 µM
NCI-H522
  growth at 10 µM: 76.4%
K562
  growth at 10 µM: 86.3%
SR
  growth at 10 µM: 85.7%
[5]
  Activity: 73%
COLO 205
  growth at 10 µM: 98.5%
LOX IMVI
  growth at 10 µM: 58.8%

## Cn1cc(C2=C(c3c[nH]c4ccccc34)C(=O)N(O)C2=O)c2ccccc21
Aurora kinase B
  IC50: > 10 µM
[1]
  Activity: 19%
CCRF-CEM
  growth at 10 µM: 82.2%
HCT-116
  growth at 10 µM: 83.3%
NCI-H322M
  growth at 10 µM: 81.9%
SN12C
  growth at 10 µM: 97.8%
HL-60(TB)
  growth at 10 µM: 72.8%
MDA-MB-435
  growth at 10 µM: 17.1%
A549
  growth at 10 µM: 91.9%
M14
  growth at 10 µM: 81%
NCI-H226
  growth at 10 µM: 76.9%
[2]
  Activity: 100%
TK-10
  growth at 10 µM: 120%
U-251
  growth at 10 µM: 98.5%
DU-145
  growth at 10 µM: 100%
A498
  growth at 10 µM: 79.1%
CAKI-1
  growth at 10 µM: 61.5%
RPMI-8226
  growth at 10 µM: 51.7%
OVCAR-5
  growth at 10 µM: 95%
HOP-62
  growth at 10 µM: 67.9%
SF-268
  growth at 10 µM: 90.4%
OVCAR-4
  growth at 10 µM: 103%
[3]
  IC50: > 10 µM
[4]
  IC50: > 10 µM
NCI-H522
  growth at 10 µM: 56.3%
K562
  growth at 10 µM: 50.2%
SR
  growth at 10 µM: 30.9%
[5]
  Activity: 46%
COLO 205
  growth at 10 µM: 86%
LOX IMVI
  growth at 10 µM: 51%

## Cn1cc(C2=C(c3cn(CCCCCC#N)c4ccccc34)C(=O)N(O)C2=O)c2ccccc21
Aurora kinase B
  IC50: > 10 µM
[1]
  Activity: 17%
CCRF-CEM
  growth at 10 µM: 83.3%
UACC-257
  growth at 10 µM: 110%
HCT-116
  growth at 10 µM: 85.1%
NCI-H322M
  growth at 10 µM: 98%
SN12C
  growth at 10 µM: 102%
HL-60(TB)
  growth at 10 µM: 124%
MDA-MB-435
  growth at 10 µM: 68.1%
A549
  growth at 10 µM: 95.8%
M14
  growth at 10 µM: 100%
NCI-H226
  growth at 10 µM: 77.8%
[2]
  Activity: 105%
TK-10
  growth at 10 µM: 116%
U-251
  growth at 10 µM: 102%
DU-145
  growth at 10 µM: 106%
A498
  growth at 10 µM: 76.7%
CAKI-1
  growth at 10 µM: 81.3%
RPMI-8226
  growth at 10 µM: 71.2%
OVCAR-5
  growth at 10 µM: 117%
HOP-62
  growth at 10 µM: 89.6%
SF-268
  growth at 10 µM: 94.9%
OVCAR-4
  growth at 10 µM: 116%
[3]
  IC50: > 10 µM
[4]
  IC50: 5 µM
K562
  growth at 10 µM: 78.8%
SR
  growth at 10 µM: 67.2%
[5]
  Activity: 24%
COLO 205
  growth at 10 µM: 92.6%
LOX IMVI
  growth at 10 µM: 60.2%
